{
  "source": "patent US20230104936A1",
  "about": "“TRPML MODULATORS” (Casma Therapeutics, Inc., priority 2019, published 2023)",
  "data": [
    {"test_system": "TFEB", "assay": "TFEB nuclear translocation assay, HeLa wt cells", "format": "cell-based", "details": "Homo sapiens, HeLa, 2 h, 2 hrs compound treatment, Table 1 does not say HeLa wt or TRPML1 KO", "procedure,_shortened": "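Cells are plated overnight, exposed to compounds for 2 hrs at 37° C, fixed with 4% PFA, blocked, and stained overnight at 4° C with rabbit anti-TFEB. After Alexa 488 secondary and Hoechst, nuclei and a perinuclear ring are segmented to give a nuclear:ring intensity ratio and AC50.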", "units": {"AC50": "nM"}, "values": [
      {"smiles": "CN(C)S(=O)(=O)c1ccc(S(=O)(=O)Nc2ccccc2N2CCC(C(C)(C)O)CC2)cc1", "note": "[Compound A-725, N4-{2-[4-(2-hydroxypropan-2-yl)piperidin-1-yl]phenyl}-N1,N1-dimethylbenzene-1,4-disulfonamide]", "AC50": "8010 to 9990"},
      {"smiles": "CC1(C)CC2(CCN(c3ccccc3NS(=O)(=O)c3ccc4c(c3)CCOC4)CC2)CO1", "note": "[Compound A-726, N-(2-{3,3-dimethyl-2-oxa-8-azaspiro[4.5]decan-8-yl}phenyl)-3,4-dihydro-1H-2-benzopyran-6-sulfonamide]", "AC50": "2010 to 8000"},
      {"smiles": "COCC1(C)CCN(c2ccccc2NS(=O)(=O)c2ccc3c(c2)CCOC3)CC1", "note": "[Compound A-727, N-{2-[4-(methoxymethyl)-4-methylpiperidin-1-yl]phenyl}-3,4-dihydro-1H-2-benzopyran-6-sulfonamide]", "AC50": "2010 to 8000"},
      {"smiles": "CN(C)S(=O)(=O)c1ccc(S(=O)(=O)N(C)c2cc(F)ccc2N2CCC3(CC2)COC(C)(C)C3)cc1", "note": "[Compound A-728, N1-(2-{3,3-dimethyl-2-oxa-8-azaspiro[4.5]decan-8-yl}-5-fluorophenyl)-N1,N4,N4-trimethylbenzene-1,4-disulfonamide]", "AC50": "2010 to 8000"},
      {"smiles": "CN(C)S(=O)(=O)c1ccc(S(=O)(=O)N(C)c2ccc(F)cc2N2CCC3(CC2)COC(C)(C)C3)cc1", "note": "[Compound A-729, N1-(2-{3,3-dimethyl-2-oxa-8-azaspiro[4.5]decan-8-yl}-4-fluorophenyl)-N1,N4,N4-trimethylbenzene-1,4-disulfonamide]", "AC50": "2010 to 8000"},
      {"smiles": "CN(C)S(=O)(=O)c1ccc(S(=O)(=O)Nc2ccccc2N2CCC(COCC(F)F)CC2)cc1", "note": "[Compound A-730, N4-(2-{4-[(2,2-difluoroethoxy)methyl]piperidin-1-yl}phenyl)-N1,N1-dimethylbenzene-1,4-disulfonamide]", "AC50": "≤ 2000"},
      {"smiles": "COCC1(C)CCN(c2ccccc2NS(=O)(=O)c2ccc(S(C)(=O)=O)c(F)c2)CC1", "note": "[Compound A-731, 3-fluoro-4-methanesulfonyl-N-{2-[4-(methoxymethyl)-4-methylpiperidin-1-yl]phenyl}benzene-1-sulfonamide]", "AC50": "≥ 10000"},
      {"smiles": "O=S(=O)(Nc1ccccc1N1CCC(c2ccc(Cl)cc2F)CC1)c1ccc(C2(C(F)(F)F)N=N2)cc1", "note": "[Compound A-732, N-{2-[4-(4-chloro-2-fluorophenyl)piperidin-1-yl]phenyl}-4-[3-(trifluoromethyl)-3H-diazirin-3-yl]benzene-1-sulfonamide]", "AC50": "2010 to 8000"},
      {"smiles": "CN(C)S(=O)(=O)c1ccc(C(C)(C)Nc2ccccc2N2CCN(Cc3ccccc3)CC2)cc1", "note": "[Compound A-733, 4-(2-{[2-(4-benzylpiperazin-1-yl)phenyl]amino}propan-2-yl)-N,N-dimethylbenzene-1-sulfonamide]", "AC50": "2010 to 8000"},
      {"smiles": "COCC1(C)CC2CCC(C1)N2c1ccccc1NS(=O)(=O)c1ccc(S(=O)(=O)N(C)C)cc1", "note": "(centres unmarked) [Compound A-734, N4-{2-[3-(methoxymethyl)-3-methyl-8-azabicyclo[3.2.1]octan-8-yl]phenyl}-N1,N1-dimethylbenzene-1,4-disulfonamide]", "AC50": "≤ 2000"},
      {"smiles": "CN(C)S(=O)(=O)c1ccc(S(=O)(=O)Nc2ccccc2N2CCC3(COC(C)(C)C3)CC2=O)cc1", "note": "(centres unmarked) [Compound A-735, N4-(2-{3,3-dimethyl-7-oxo-2-oxa-8-azaspiro[4.5]decan-8-yl}phenyl)-N1,N1-dimethylbenzene-1,4-disulfonamide]", "AC50": "≥ 10000"},
      {"smiles": "COCC1(C)CCN(c2ccccc2NS(=O)(=O)c2ccc(S(=O)(=O)N3CCC3)cc2)CC1", "note": "[Compound A-736, 4-(azetidine-1-sulfonyl)-N-{2-[4-(methoxymethyl)-4-methylpiperidin-1-yl]phenyl}benzene-1-sulfonamide]", "AC50": "≤ 2000"},
      {"smiles": "CC(c1ccc(F)cc1N1CCC2(CC1)COC(C)(C)C2)S(=O)(=O)c1ccc(S(=O)(=O)N(C)C)cc1", "note": "(centres unmarked) [Compound A-737, 4-[1-(2-{3,3-dimethyl-2-oxa-8-azaspiro[4.5]decan-8-yl}-4-fluorophenyl)ethanesulfonyl]-N,N-dimethylbenzene-1-sulfonamide]", "AC50": "≥ 10000"},
      {"smiles": "COCC1(C)CCN(c2ccccc2NS(=O)(=O)c2ccc3c(c2)OC(C)(C)C3)CC1", "note": "[Compound A-738, N-{2-[4-(methoxymethyl)-4-methylpiperidin-1-yl]phenyl}-2,2-dimethyl-2,3-dihydro-1-benzofuran-6-sulfonamide]", "AC50": "≤ 2000"},
      {"smiles": "CN(C)S(=O)(=O)c1ccc(S(=O)(=O)Nc2ccccc2N2CCC(COC(C)(F)F)CC2)cc1", "note": "[Compound A-739, N4-(2-{4-[(1,1-difluoroethoxy)methyl]piperidin-1-yl}phenyl)-N1,N1-dimethylbenzene-1,4-disulfonamide]", "AC50": "≤ 2000"},
      {"smiles": "COCC1(C)CCN(c2ccccc2NS(=O)(=O)c2ccc(C3(C(F)(F)F)N=N3)cc2)CC1", "note": "[Compound A-740, N-{2-[4-(methoxymethyl)-4-methylpiperidin-1-yl]phenyl}-4-[3-(trifluoromethyl)-3H-diazirin-3-yl]benzene-1-sulfonamide]", "AC50": "8010 to 9990"},
      {"smiles": "COC(C)C1(C)CCN(c2ccccc2NS(=O)(=O)c2ccc(S(=O)(=O)N(C)C)cc2)CC1", "note": "(centres unmarked) [Compound A-741, N4-{2-[4-(1-methoxyethyl)-4-methylpiperidin-1-yl]phenyl}-N1,N1-dimethylbenzene-1,4-disulfonamide]", "AC50": "≤ 2000"},
      {"smiles": "CC1(C)CC2(CCN(c3ccccc3NS(=O)(=O)c3ccc4c(c3)C(C)(C)CO4)CC2)CO1", "note": "[Compound A-742, N-(2-{3,3-dimethyl-2-oxa-8-azaspiro[4.5]decan-8-yl}phenyl)-3,3-dimethyl-2,3-dihydro-1-benzofuran-5-sulfonamide]", "AC50": "≤ 2000"},
      {"smiles": "CC1(C)CC2(CCN(c3ccccc3NS(=O)(=O)CCc3ccccc3)CC2)CO1", "note": "[Compound A-743, N-(2-{3,3-dimethyl-2-oxa-8-azaspiro[4.5]decan-8-yl}phenyl)-2-phenylethane-1-sulfonamide]", "AC50": "≥ 10000"},
      {"smiles": "COCC1(C)CCN(c2ccccc2NS(=O)(=O)Cc2cccc(S(=O)(=O)COC)c2)CC1", "note": "[Compound A-744, 1-(3-methoxymethanesulfonylphenyl)-N-{2-[4-(methoxymethyl)-4-methylpiperidin-1-yl]phenyl}methanesulfonamide]", "AC50": "≥ 10000"},
      {"smiles": "COCC1(C)CCN(c2ccccc2NS(=O)(=O)c2ccc(S(=O)(=O)N(C)C)cc2)C(C)C1", "note": "(centres unmarked) [Compound A-745, N4-{2-[4-(methoxymethyl)-2,4-dimethylpiperidin-1-yl]phenyl}-N1,N1-dimethylbenzene-1,4-disulfonamide]", "AC50": "≥ 10000"},
      {"smiles": "COCC1(C)CCN(c2c(NS(=O)(=O)c3ccc(S(=O)(=O)N(C)C)cc3)ccc3c2cnn3C)CC1", "note": "[Compound A-746, N4-{4-[4-(methoxymethyl)-4-methylpiperidin-1-yl]-1-methyl-1H-indazol-5-yl}-N1,N1-dimethylbenzene-1,4-disulfonamide]", "AC50": "≤ 2000"},
      {"smiles": "COCC1(C)CCN(c2ccccc2NS(=O)(=O)Cc2ccc(S(=O)(=O)COC)cc2)CC1", "note": "[Compound A-747, 1-(4-methoxymethanesulfonylphenyl)-N-{2-[4-(methoxymethyl)-4-methylpiperidin-1-yl]phenyl}methanesulfonamide]", "AC50": "≥ 10000"},
      {"smiles": "CC(C1CCN(c2c(F)cccc2NS(=O)(=O)c2ccc(S(=O)(=O)N(C)C)cc2)CC1)N1C[C@@H](C)O[C@@H](C)C1", "note": "(stereo partly drawn) [Compound A-748, N4-[2-(4-{1-[(2R,6S)-2,6-dimethylmorpholin-4-yl]ethyl}piperidin-1-yl)-3-fluorophenyl]-N1,N1-dimethylbenzene-1,4-disulfonamide]", "AC50": "≤ 2000"},
      {"smiles": "O=S(=O)(Nc1cccc(Cl)c1N1CCCCC1)c1ccc(C2(C(F)(F)F)N=N2)cc1", "note": "[Compound A-749, N-[3-chloro-2-(piperidin-1-yl)phenyl]-4-[3-(trifluoromethyl)-3H-diazirin-3-yl]benzene-1-sulfonamide]", "AC50": "2010 to 8000"},
      {"smiles": "CC(c1cccc(F)c1N1CCC(CN2C[C@@H](C)O[C@@H](C)C2)CC1)S(=O)(=O)c1ccc(S(=O)(=O)N(C)C)cc1", "note": "(stereo partly drawn) [Compound A-750, 4-{1-[2-(4-{[(2R,6S)-2,6-dimethylmorpholin-4-yl]methyl}piperidin-1-yl)-3-fluorophenyl]ethanesulfonyl}-N,N-dimethylbenzene-1-sulfonamide]", "AC50": "≤ 2000"},
      {"smiles": "CC(c1ccccc1N1CCC2(CC1)COC(C)(C)C2)S(=O)(=O)Cc1ccccc1", "note": "(centres unmarked) [Compound A-751, 3,3-dimethyl-8-[2-(1-phenylmethanesulfonylethyl)phenyl]-2-oxa-8-azaspiro[4.5]decane]", "AC50": "≥ 10000"},
      {"smiles": "CC(c1cccc(F)c1N1CCC2(CC1)COC(C)(C)C2)S(=O)(=O)c1ccc(S(=O)(=O)N(C)C)cc1", "note": "(centres unmarked) [Compound A-752, 4-[1-(2-{3,3-dimethyl-2-oxa-8-azaspiro[4.5]decan-8-yl}-3-fluorophenyl)ethanesulfonyl]-N,N-dimethylbenzene-1-sulfonamide]", "AC50": "≤ 2000"},
      {"smiles": "CN(C)S(=O)(=O)c1ccc(S(=O)(=O)Nc2cccc(C(F)F)c2N2CCC3(CC2)COC(C)(C)C3)cc1", "note": "[Compound A-753, N4-[3-(difluoromethyl)-2-{3,3-dimethyl-2-oxa-8-azaspiro[4.5]decan-8-yl}phenyl]-N1,N1-dimethylbenzene-1,4-disulfonamide]", "AC50": "≤ 2000"},
      {"smiles": "C[C@@H]1CN(C(=O)C2CCN(c3ccccc3NS(=O)(=O)c3ccc(S(=O)(=O)N(C)C)cc3)CC2)C[C@H](C)O1", "note": "[Compound A-754, N4-(2-{4-[(2R,6S)-2,6-dimethylmorpholine-4-carbonyl]piperidin-1-yl}phenyl)-N1,N1-dimethylbenzene-1,4-disulfonamide]", "AC50": "2010 to 8000"},
      {"smiles": "C[C@@H]1CN(CC2CCN(c3c(F)cccc3NS(=O)(=O)c3ccc(S(=O)(=O)N(C)C)cc3)CC2)C[C@H](C)O1", "note": "[Compound A-755, N4-[2-(4-{[(2R,6S)-2,6-dimethylmorpholin-4-yl]methyl}piperidin-1-yl)-3-fluorophenyl]-N1,N1-dimethylbenzene-1,4-disulfonamide]", "AC50": "≤ 2000"},
      {"smiles": "Cc1nc(C)c(S(=O)(=O)Nc2ccccc2N2CCC(CN3C[C@@H](C)O[C@@H](C)C3)CC2)s1", "note": "[Compound A-756, N-[2-(4-{[(2R,6S)-2,6-dimethylmorpholin-4-yl]methyl}piperidin-1-yl)phenyl]-2,4-dimethyl-1,3-thiazole-5-sulfonamide]", "AC50": "2010 to 8000"}
    ]}
  ]
}
